In brackets after ≈: the same amount, converted by molar mass. Like-named read-outs stand apart in the source and are kept apart here.
Assays:
Assay type in all cases: cell-based
[1] = test system: Staphylococcus aureus ATCC 29213; experiment: Broth microdilution MIC assay, quality control strain (Example 2); conditions: ATCC29213, S. aureus ATCC 29213 (QC), CAMHB
Method: Following incubation, colonies were harvested from these plates and cell suspensions prepared and frozen at −80° C. with a cryoprotectant. Prior to testing, N. gonorrhoeae isolates were streaked onto Chocolate Agar [Becton Dickinson, (BD), Sparks, Md.; Lot No. 922807]; Staphylococcus aureus ATCC 29213 tested for quality control (QC) purposes was streaked onto Trypticase Soy Agar with 5% Sheep Blood (TSA II; BD; Lot No. 9219399).
Cation-adjusted Mueller Hinton broth (CAMHB; BD; Lot No. 9019592) was used for MIC testing of S. aureus ATCC 29213 for QC purposes.
MIC values were determined using a broth microdilution procedure described by CLSI (1, 2). Automated liquid handlers (Multidrop 384, Labsystems, Helsinki, Finland; Biomek 2000 and Biomek FX, Beckman Coulter, Fullerton Calif.) were used to conduct serial dilutions and liquid transfers.
(§1) To prepare the drug mother plates, which would provide the serial drug dilutions for the replicate daughter plates, the wells of columns 2 through 12 of standard 96-well microdilution plates (Costar 3795) were filled with 150 μl of the designated diluent for each row of drug. The test articles and comparator compounds (300 μl at 100× the highest concentration to be tested) were dispensed into the appropriate wells in column 1. The Biomek 2000 was then used to make 2-fold serial dilutions in the mother plates from column 1 through column 11. The wells of column 12 contained no drug and served as the organism growth control wells for the assay.
(§2) The daughter plates were loaded with 190 μL per well of the appropriate test medium for the tested organism using the Multidrop 384. The daughter plates were completed on the Biomek FX instrument which transferred 2 μL of drug solution from each well of a mother plate to the corresponding well of each daughter plate in a single step. Daughter plates for the testing of anaerobes were allowed to pre-reduce in the Bactron II anaerobe chamber for 2 hr prior to inoculation.
(§3) A standardized inoculum of each test organism was prepared per CLSI methods (1, 2). The inoculum for each organism was dispensed into sterile reservoirs divided by length (Beckman Coulter), and the Biomek 2000 was used to inoculate the plates. Daughter plates were placed on the Biomek 2000 work surface in reverse orientation so that inoculation took place from low to high drug concentration. Anaerobic organisms were inoculated by hand in the Bactron II anaerobic chamber. Bacterial plates were then inoculated with 10 μL of the inoculum resulting in a final cell density of approximately 5×10^5 CFU/mL.
Plates were stacked 3 to 4 high, covered with a lid on the top plate and placed in plastic bags. […] The MIC was read and recorded as the lowest concentration of drug that inhibited visible growth of the organism.

Neisseria gonorrhoeae [2] = experiment: Agar dilution MIC assay, 25 isolates (Example 3); conditions: for MIC: Neisseria gonorrhoeae, agar dilution
Method: The MIC of Neisseria gonorrhoea was established using an agar dilution MIC assay.
Test drugs were provided by Micromyx. All stock solutions were allowed to stand for at least 1 hr prior to use to auto-sterilize. Leftover stock solutions of comparator drugs were aliquoted and stored at −80° C. Suppliers, catalog/lot numbers, solvents, stock concentrations and testing ranges were as follows.
Test organisms were reference strains from the American Type Culture Collection (ATCC; Manassas, Va.), isolates from WHO, isolates from the CDC antibiotic resistance bank, and clinical isolates from the Micromyx (MMX) repository. Upon receipt at Micromyx, the isolates were streaked under suitable conditions onto agar medium appropriate to each organism and were incubated for 24-48 hr at 35° C. Colonies harvested from these growth plates were resuspended in the appropriate medium containing a cryoprotectant. Aliquots of each suspension were then frozen at −80° C.
Prior to testing, the isolates were sub-cultured onto Chocolate agar (Becton Dickenson [BD]/BBL; Sparks, Md., Cat. No. 221267, Lot No. 9346275) and placed at 35° C. in a CO2 incubator for 24 hrs.
MIC values were determined using the agar dilution method (1, 2). All serial dilutions and liquid handling were performed by hand using sterile pipettes. […] Cannabidiol was prepared as a stock solution at 100× the final concentration in the appropriate solvent and diluted according to CLSI guidelines.
Each test agent was mixed with molten (50-55° C.) GC media agar supplemented with 1% IsoVitalex. […] All other test agents were added to the medium in a ratio of 0.2 mL 100× test agent to 19.8 mL agar. Once test agents were added to the agar in a sterile tube, they were mixed gently and then poured into a sterile 110×15 mm petri dish. Plates were allowed to solidify at room temperature and placed in a laminar air flow hood with the covers off to remove condensed moisture on the agar surface.
Next, each isolate was suspended to the equivalent of a 0.5 McFarland standard in saline using a Siemens Microscan turbidity meter and diluted 1:10. Each bacterial cell suspension was then transferred to wells in a stainless-steel replicator block. The prongs on the replicator deliver approximately 1-2 μl of inoculum to an agar surface. The resulting inoculum spots contained approximately 10^4 cells/spot.
Each agar plate containing either test compound or no drug (control) was stamped with the replicator. All plates were placed with the agar surface up to allow for the inoculum to soak into the agar. The plates were inverted and incubated at 35° C. for 24 hrs in a CO2 incubator and finally inspected for growth.

Neisseria gonorrhoeae [3] = experiment: Broth microdilution MIC testing (Example 1)
Method: (§4) In this study, to evaluate the spectrum of activity, cannabidiol (CBD) was profiled against Neisseria. Testing was conducted following guidelines recommended by the Clinical and Laboratory Standards Institute (CLSI, 1-4), using vancomycin, meropenem, levofloxacin, and gentamicin as comparators for testing aerobic bacteria.
(§5) Test agents were supplied by Micromyx. Stock solutions of all compounds were prepared on the first day of testing at 101× the highest test concentration using solvents recommended by CLSI. CBD was prepared fresh on each of testing.
(§6) The test organisms evaluated in this study consisted of clinical isolates from the Micromyx Repository, reference isolates from the American Type Culture Collection (ATCC; Manassas, Va.), isolates from the antibiotic resistance bank from the Centers for Disease Control and Prevention (CDC; Atlanta, Ga.), and isolates from the Network on Antimicrobial Resistance in Staphylococcus aureus (NARSA; BEI Resources, Manassas, Va.). Upon initial receipt at Micromyx, the organisms were sub-cultured onto an appropriate agar medium. Following incubation, colonies were harvested from these plates and cell suspensions prepared and frozen at −80° C. with a cryoprotectant.
(§7) Prior to testing, Neisseria was streaked onto Chocolate agar (BD; Lot No. 9228071) and incubated at 35° C. in 5% CO2 for 24 hr.
(§8) For Neisseria, a modified medium described by the ATCC as capable of supporting growth was used. This medium contains 15 g Oxoid Special Peptone, 1 g corn starch (Ward's Science; Rochester, N.Y.; Lot 39-3271), 5 g NaCl (VWR; 57897), 4 g K2HPO4 (Sigma; Lot SLBT7061), 1 g KH2PO4 (SLBC1921V), and 1% IsoVitaleX (BD; Lot 8323954) enrichment per 500 mL.
(§9) MIC values were determined using a broth microdilution procedure described by CLSI (1-4). Automated liquid handlers (Multidrop 384, Labsystems, Helsinki, Finland; Biomek 2000 and Biomek FX, Beckman Coulter, Fullerton, Calif.) were used to conduct serial dilutions and liquid transfers.
as §1, with “article” for “articles”, “101×” for “100×”
as §2, with “step.” for “step. Daughter plates for the testing of anaerobes were allowed to pre-reduce in the Bactron II anaerobe chamber for 2 hr prior to inoculation.”
as §3, with “(1-4).” for “(1, 2).”, “Plates” for “Anaerobic organisms”, “were” for “were inoculated by hand in the Bactron II anaerobic chamber. Bacterial plates were then”, “CFU/mL per well.” for “CFU/mL.”
The plates for testing of aerobic organisms were stacked 3 to 4 high, covered with a sterile lid, and incubated at 35° C. and 5% CO2 for the time periods specified in CLSI (1-4). […] Following incubation, the microplates were removed from the incubator and viewed from the bottom using a plate viewer. […] The MIC was read and recorded as the lowest concentration of drug that inhibited visible growth of the organism.

Neisseria meningitidis = experiment: Broth microdilution MIC testing (Example 1)
Method: as §4, §5, §6, §7, §8, §9
as §1, with “article” for “articles”, “101×” for “100×”
as §2, with “step.” for “step. Daughter plates for the testing of anaerobes were allowed to pre-reduce in the Bactron II anaerobe chamber for 2 hr prior to inoculation.”
A standardized inoculum of each test organism was prepared per CLSI methods (1-4). The inoculum for each organism was dispensed into sterile reservoirs divided by length (Beckman Coulter), and the Biomek 2000 was used to inoculate the plates. […]
The plates for testing of aerobic organisms were stacked 3 to 4 high, covered with a sterile lid, and incubated at 35° C. and 5% CO2 for the time periods specified in CLSI (1-4). […] The MIC was read and recorded as the lowest concentration of drug that inhibited visible growth of the organism.

[4] = 25 isolates, agar dilution assay, MIC distribution
[5] = Neisseria gonorrhoeae, ATCC49226, N. gonorrhoeae MMX 0683 / ATCC 49226, broth microdilution, plate read at 40 hr, read-out: MIC
[6] = Neisseria gonorrhoeae, N. gonorrhoeae MMX 6746, broth microdilution, read-out: MIC
[7] = Neisseria gonorrhoeae, N. gonorrhoeae MMX 6757, broth microdilution, plate read at 40 hr, read-out: MIC
[8] = Neisseria meningitidis, ATCC13090, N. meningitidis MMX 0707 / ATCC 13090, broth microdilution, read-out: MIC

With `O=C(O)c1cn(C2CC2)c2cc(N3CCNCC3)c(F)cc2c1=O` [CIP, ciprofloxacin] the MIC [1] was 0.25 µg/mL (≈ 0.754 µM), the “Number of isolates at MIC 0.015 μg mL^−1” value (Neisseria gonorrhoeae [2]; [4]) was 3 and the “Number of isolates at MIC 0.03 μg mL^−1” value (Neisseria gonorrhoeae [2]; [4]) was 0. The “Number of isolates at MIC 0.06 μg mL^−1” value (Neisseria gonorrhoeae [2]; [4]) was 0, the “Number of isolates at MIC 0.12 μg mL^−1” value (Neisseria gonorrhoeae [2]; [4]) was 1 and the “Number of isolates at MIC 0.25 μg mL^−1” value (Neisseria gonorrhoeae [2]; [4]) was 0. For the same compound, the “Number of isolates at MIC 0.5 μg mL^−1” value (Neisseria gonorrhoeae [2]; [4]) was 0, the “Number of isolates at MIC 1 μg mL^−1” value (Neisseria gonorrhoeae [2]; [4]) was 0 and the “Number of isolates at MIC 4 μg mL^−1” value (Neisseria gonorrhoeae [2]; [4]) was 2. The “Number of isolates at MIC >8 μg mL^−1” value (Neisseria gonorrhoeae [2]; [4]) was 11, the “Number of isolates at MIC ≤0.004 μg mL^−1” value (Neisseria gonorrhoeae [2]; [4]) was 6 and the MIC (Neisseria gonorrhoeae [2]; N. gonorrhoeae CDC 0177) was 0.015 µg/mL (≈ 0.0453 µM). The MIC (Neisseria gonorrhoeae [2]; N. gonorrhoeae CDC 0181) was 0.015 µg/mL (≈ 0.0453 µM), the MIC (Neisseria gonorrhoeae [2]; NCTC13478, N. gonorrhoeae NCTC 13478 (WHO G)) was 0.12 µg/mL (≈ 0.362 µM) and the MIC (Neisseria gonorrhoeae [2]; NCTC13481, N. gonorrhoeae NCTC 13481 (WHO M)) was 2 µg/mL (≈ 6.04 µM). The MIC (Neisseria gonorrhoeae [2]; NCTC13483, N. gonorrhoeae NCTC 13483 (WHO O)) was 0.015 µg/mL (≈ 0.0453 µM).
In the case of `C[C@H]1COc2c(N3CCN(C)CC3)c(F)cc3c(=O)c(C(=O)O)cn1c23` [LVX, levofloxacin], the MIC (Neisseria gonorrhoeae [3]; [5]) is reported as 0.002 µg/mL (≈ 0.00553 µM), the MIC (Neisseria gonorrhoeae [3]; [6]) is reported as 4 µg/mL (≈ 11.1 µM) and the MIC (Neisseria gonorrhoeae [3]; [7]) is reported as 0.015 µg/mL (≈ 0.0415 µM). The MIC (Neisseria meningitidis; [8]) was 0.004 µg/mL (≈ 0.0111 µM).
For `C[C@@H](O)[C@H]1C(=O)N2C(C(=O)O)=C(S[C@@H]3CN[C@H](C(=O)N(C)C)C3)[C@H](C)[C@H]12` [MEM, meropenem], the MIC (Neisseria gonorrhoeae [3]; [5]) was less than 0.03 µg/mL, the MIC (Neisseria gonorrhoeae [3]; [6]) was 0.06 µg/mL (≈ 0.156 µM) and the MIC (Neisseria gonorrhoeae [3]; [7]) was less than 0.03 µg/mL. The MIC (Neisseria meningitidis; [8]) was less than 0.03 µg/mL.
In the case of `CN[C@H](CC(C)C)C(=O)N[C@H]1C(=O)N[C@@H](CC(N)=O)C(=O)N[C@H]2C(=O)N[C@H]3C(=O)N[C@H](C(=O)N[C@H](C(=O)O)c4cc(O)cc(O)c4-c4cc3ccc4O)[C@H](O)c3ccc(c(Cl)c3)Oc3cc2cc(c3O[C@@H]2O[C@H](CO)[C@@H](O)[C@H](O)[C@H]2O[C@H]2C[C@](C)(N)[C@H](O)[C@H](C)O2)Oc2ccc(cc2Cl)[C@H]1O` [VAN, vancomycin], the MIC (Neisseria gonorrhoeae [3]; Neisseria gonorrhoeae) is reported as 16 µg/mL (≈ 11 µM), the MIC (Neisseria gonorrhoeae [3]; Neisseria gonorrhoeae, 40 h) is reported as 32 µg/mL (≈ 22.1 µM) and the MIC (Neisseria gonorrhoeae [3]; Neisseria gonorrhoeae, ATCC49226, 40 h) is reported as 8 µg/mL (≈ 5.52 µM). For the same compound, the MIC (Neisseria meningitidis; Neisseria meningitidis, ATCC13090) was greater than 32 µg/mL.
gentamicin was tested, and the MIC (Neisseria gonorrhoeae [3]; N. gonorrhoeae MMX 0683 / ATCC 49226, broth microdilution, plate read at 40 hr) was 4 µg/mL, the MIC (Neisseria gonorrhoeae [3]; N. gonorrhoeae MMX 6746, broth microdilution) was 16 µg/mL and the MIC (Neisseria gonorrhoeae [3]; N. gonorrhoeae MMX 6757, broth microdilution, plate read at 40 hr) was 8 µg/mL. For the same compound, the MIC (Neisseria meningitidis; N. meningitidis MMX 0707 / ATCC 13090, broth microdilution) was 8 µg/mL.
